Results published in patent publication US20240238426A1, “PROTEIN ACYLATION MODULATION BY HETEROBIFUNCTIONAL MOLECULES” (THE SCRIPPS RESEARCH INSTITUTE, priority 2021, published 2024).

Tests used:
[1] = test system: T1, FKBP12^F36V-p53 (Homo sapiens, F37V); experiment: Immunoblot analysis of FKBP12^F36V-p53 acetylation in H1299 cells; format: cell-based
T1 construct: expressed in transfected cells
Method: (§1) Lentivirus Production and Transduction: Lentiviral production was performed using HEK293T cells, which were co-transfected with pMD2.G (Addgene, #12259), psPAX2 (Addgene, #12260), and AceTAG lentiviral plasmids using PEI (Polysciences Inc). Viral particles were collected 72 h after transfection and filtered through a […] membrane. A range of dilutions of the lentivirus in DMEM complete and 10 μg/mL polybrene were added to HeLa, H1299, or HeLa RelA KO cell lines. Transduced cells were selected with 1 μg/mL or 2 μg/mL puromycin.
(§2) Immunoblotting: Cells were harvested in cold DPBS by scraping and washed with cold DPBS twice. Cell pellets were resuspended in DPBS supplemented with 5 mM sodium butyrate, 20 mM Nicotinamide, and 1X Halt Protease Inhibitor Cocktail and lysed by sonication (15 ms on, 40 ms off, 15% amplitude, 1s total on x 3). Protein concentration was determined using DC Protein Assay (Bio-Rad) and absorbance read using a CLARIOstar plate reader following manufacturer's instructions. Samples with equal protein content were boiled in 4X SDS gel loading buffer for 10 min. Proteins were separated by 10%, 12.5%, or 15% SDS-polyacrylamide gel electrophoresis and transferred to PVDF membranes using Trans-Blot Turbo RTA Mini […] LF PVDF Transfer Kit (Bio-Rad). Membranes were incubated for 1 h at room temperature with blocking buffer, followed by incubating overnight at 4° C. with primary antibodies. After washing in TBST, the secondary antibodies were incubated with the membranes at room temperature for 1 h. The membranes were washed with TBST for three times and visualized on a Bio-Rad ChemiDoc MP Imaging System with Clarity Max Western ECL substrate (Bio-Rad) or SuperSignal West Femto Chemiluminescent substrate proprietary luminol and peroxide solution kit (Thermo Scientific Pierce).

[2] = target: T2, H3.3-FKBP12^F36V (Homo sapiens, UniProt P62942+Q09472, F37V); experiment: Immunoblot analysis of H3.3-FKBP12^F36V acetylation in HeLa cells; format: cell-based
T2 construct: expressed in transfected cells
Method: as §1, §2

[3] = test system: p21 (CDKNIA), PUMA, MDM2, and GLS2; experiment: Immunoblot of p53 target gene expression in FKBP12^F36V-p53 H1299 cells; format: cell-based, Human
Method: as §2

[4] = test system: TP53 target genes; experiment: RNA-seq analysis of FKBP12^F36V-p53 H1299 cells; format: cell-based, Human
[5] = test system: p300/CBP substrates, including c-Myc and STAT3; experiment: Immunoblot of acetylation of other p300/CBP substrates in HeLa cells; format: cell-based, Human; conditions: increasing concentration
Method: as §2

[6] = target: T3, FKBP12^F36V and the bromodomain of p300 (BRD-p300) (Homo sapiens, UniProt P62942+Q09472, F37V); experiment: GST-FKBP12^F36V/His-P300-BRD AlphaScreen assay, ternary complex formation; format: binding; conditions: FIG. 3B
T3 construct: A construct containing residues 2-108 of FKBP12^F36V in pGEX4t-1 vector; the BRD domain of p300 (BRD-p300); purchased) 31372; host or cells: E. coli BL21(DE3) (GST-FKBP12^F36V)
Method: GST-FKBP12^F36V/His-P300-BRD AlphaScreen Assay: GST-FKBP12^F36V and 6xHis-p300-BRD (active motif #31372) were diluted to 250 nM and 500 nM, in assay buffer (50 mM HEPES pH 7.4, 200 mM NaCl, 1 mM TCEP, and 0.1% BSA), […] of protein mixture was added to each well of a 1/2 area 96-well OptiPlate (PerkinElmer). Compounds were then added from DMSO stock to protein mixture ([…]) with 1% DMSO in final mixture. Plates were then shaken orbitally at room temperature for 1 h. Nickel Chelate AlphaLISA Acceptor and Glutathione AlphaLISA Donor beads (PerkinElmer) diluted to 20 ng/ml in assay buffer and […] beads mixture was added to each well. After a 1 h orbital shaking at room temperature. luminescence was measured on the Envision 2104 plate reader (PerkinElmer). Data were plotted and analyzed using GraphPad PRISM v8 and fit with ‘Bell-shaped’ dose response curve.

[7] = 3 μM AceTAG-1 compared to vehicle, FIG. 7F

T2 sequence (P62942 2-108 F37V limits assumed): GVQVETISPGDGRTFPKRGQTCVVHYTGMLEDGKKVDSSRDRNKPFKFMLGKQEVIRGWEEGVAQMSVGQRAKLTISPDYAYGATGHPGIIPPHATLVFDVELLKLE
T2 sequence (Q09472 2-2414 limits assumed, stated change not applied): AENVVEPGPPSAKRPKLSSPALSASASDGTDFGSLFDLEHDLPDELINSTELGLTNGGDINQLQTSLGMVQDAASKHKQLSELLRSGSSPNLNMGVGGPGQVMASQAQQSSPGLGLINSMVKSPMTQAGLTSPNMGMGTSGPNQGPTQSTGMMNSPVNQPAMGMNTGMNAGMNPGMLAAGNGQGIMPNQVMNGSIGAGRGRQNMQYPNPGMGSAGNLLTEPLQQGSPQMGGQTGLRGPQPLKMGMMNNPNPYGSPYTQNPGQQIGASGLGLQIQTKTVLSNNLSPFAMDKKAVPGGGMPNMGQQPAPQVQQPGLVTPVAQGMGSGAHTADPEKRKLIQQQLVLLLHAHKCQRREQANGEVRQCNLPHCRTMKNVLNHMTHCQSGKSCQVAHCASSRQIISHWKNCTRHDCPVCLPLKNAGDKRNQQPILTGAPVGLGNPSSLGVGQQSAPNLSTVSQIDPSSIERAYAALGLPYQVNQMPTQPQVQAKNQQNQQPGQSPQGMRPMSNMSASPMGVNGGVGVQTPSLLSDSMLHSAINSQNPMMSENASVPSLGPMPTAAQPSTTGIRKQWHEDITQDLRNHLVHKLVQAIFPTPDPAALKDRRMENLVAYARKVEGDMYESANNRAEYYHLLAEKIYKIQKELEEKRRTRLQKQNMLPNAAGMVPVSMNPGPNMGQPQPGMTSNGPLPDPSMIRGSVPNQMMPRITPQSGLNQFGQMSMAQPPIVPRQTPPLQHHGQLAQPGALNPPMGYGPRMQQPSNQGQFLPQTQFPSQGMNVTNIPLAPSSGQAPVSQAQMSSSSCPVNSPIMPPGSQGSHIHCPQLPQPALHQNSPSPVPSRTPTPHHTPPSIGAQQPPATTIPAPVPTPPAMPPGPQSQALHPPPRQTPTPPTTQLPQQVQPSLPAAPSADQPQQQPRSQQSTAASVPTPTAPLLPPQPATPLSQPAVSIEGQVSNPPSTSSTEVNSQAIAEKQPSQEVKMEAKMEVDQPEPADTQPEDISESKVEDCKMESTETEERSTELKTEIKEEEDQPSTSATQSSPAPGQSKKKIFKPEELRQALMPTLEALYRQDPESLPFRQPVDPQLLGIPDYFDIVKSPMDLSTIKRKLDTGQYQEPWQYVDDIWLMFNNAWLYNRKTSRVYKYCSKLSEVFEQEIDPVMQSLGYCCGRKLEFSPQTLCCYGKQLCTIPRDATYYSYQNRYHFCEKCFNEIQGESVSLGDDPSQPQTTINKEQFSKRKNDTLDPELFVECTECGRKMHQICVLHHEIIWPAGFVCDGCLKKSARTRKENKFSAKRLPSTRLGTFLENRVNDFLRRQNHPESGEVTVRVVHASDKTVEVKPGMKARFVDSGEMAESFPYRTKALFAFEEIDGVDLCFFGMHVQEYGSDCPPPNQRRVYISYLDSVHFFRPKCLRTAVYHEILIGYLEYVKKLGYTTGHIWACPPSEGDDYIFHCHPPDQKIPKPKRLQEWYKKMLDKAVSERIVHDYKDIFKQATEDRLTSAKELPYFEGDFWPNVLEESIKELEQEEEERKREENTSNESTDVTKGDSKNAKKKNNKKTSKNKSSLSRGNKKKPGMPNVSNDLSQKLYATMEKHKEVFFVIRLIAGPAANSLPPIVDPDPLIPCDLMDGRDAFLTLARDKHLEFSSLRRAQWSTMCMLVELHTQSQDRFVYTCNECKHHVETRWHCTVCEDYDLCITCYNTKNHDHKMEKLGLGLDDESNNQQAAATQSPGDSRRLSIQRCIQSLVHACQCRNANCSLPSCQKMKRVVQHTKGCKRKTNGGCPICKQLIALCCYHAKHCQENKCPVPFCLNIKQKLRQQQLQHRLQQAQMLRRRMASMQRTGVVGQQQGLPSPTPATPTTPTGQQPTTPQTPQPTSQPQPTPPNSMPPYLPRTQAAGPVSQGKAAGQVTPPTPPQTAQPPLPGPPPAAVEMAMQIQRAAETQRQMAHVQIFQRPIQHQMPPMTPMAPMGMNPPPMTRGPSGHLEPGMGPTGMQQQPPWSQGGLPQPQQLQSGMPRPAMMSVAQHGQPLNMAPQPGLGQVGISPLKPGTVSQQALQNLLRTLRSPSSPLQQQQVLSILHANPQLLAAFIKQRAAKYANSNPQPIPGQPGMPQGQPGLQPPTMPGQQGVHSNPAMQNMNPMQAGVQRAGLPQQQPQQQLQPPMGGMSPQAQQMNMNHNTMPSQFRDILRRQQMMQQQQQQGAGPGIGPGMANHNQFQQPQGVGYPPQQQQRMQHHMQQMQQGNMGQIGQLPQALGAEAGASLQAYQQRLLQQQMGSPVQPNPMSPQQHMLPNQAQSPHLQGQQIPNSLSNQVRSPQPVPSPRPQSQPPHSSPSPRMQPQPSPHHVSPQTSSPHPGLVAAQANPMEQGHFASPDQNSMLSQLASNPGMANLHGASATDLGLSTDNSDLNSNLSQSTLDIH
T1 sequence (P62942 2-108 F37V limits assumed): as the sequence (P62942 2-108 F37V limits assumed) above
T1 sequence (Q09472 2-2414 limits assumed, stated change not applied, further chain): as the sequence (Q09472 2-2414 limits assumed, stated change not applied) above
T3 sequence (P62942 2-108 F37V): as the sequence (P62942 2-108 F37V limits assumed) above
T3 sequence (Q09472 1049-1156): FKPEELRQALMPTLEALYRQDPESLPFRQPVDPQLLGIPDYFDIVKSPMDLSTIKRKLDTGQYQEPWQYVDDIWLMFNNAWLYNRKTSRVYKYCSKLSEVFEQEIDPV

## CC[C@H](C(=O)N1CCCC[C@H]1C(=O)O[C@H](CCc1ccc(OC)c(OC)c1)c1cccc(OCC(=O)NCCOCCOCCC(=O)NCCOc2ccc(CCc3nc4cc(-c5c(C)noc5C)ccc4n3CCN3CCOCC3)cc2)c1)c1cc(OC)c(OC)c(OC)c1 [AceTAG-1, (R)-3-(3,4-dimethoxyphenyl)-1-(3-((15-(4-(2-(5-(3,5-dimethylisoxazol-4-yl)-1-(2-morpholinoethyl)-1H-benzo[d]imidazol-2-yl)ethyl)phenoxy)-2,12-dioxo-6,9-dioxa-3,13-diazapentadecyl)oxy)phenyl)propyl (S)-1-((S)-2-(3,4,5-trimethoxyphenyl)butanoyl)piperidine-2-carboxylate]
[1]; FIG. 6C
  p53 acetylation at higher AceTAG-1 concentrations: apparent acetylation autoinhibition
[1]; FIG. 9E
  treatment time after which a significant level of p53 acetylation is detectable: ~10 min
[1]; indicated doses, 2 hr, FIG. 6C
  p53 acetylation at K305, K373, and K382: strong AceTAG-1-dependent acetylation
[2]; 625 nM AceTAG-1, FIG. 4E
  treatment time after which H3.3-FKBP12^F36V acetylation significantly increased: 5 min
[2]; 50 μM AceTAG-1
  acetylation level at high concentration (hook effect): loss of acetylation level
[2]; FIG. 9B
  K18 acetylation, comparison of analogs: modestly higher levels of acetylation relative to the other analogs
[2]; HeLa cells, FIG. 8
  acetylation of H3.3: significant acetylation of H3.3
[2]; increasing concentrations, 2 hr, FIG. 4B
  H3.3 acetylation at lysine 18, 23, and 27: dose-dependent increase
[2]; increasing concentrations, 2 hr, FIG. 4C
  H3.3 acetylation at lysine 9, 14, or 79: not lysine 9, 14, or 79
[2]; washout, FIG. 4F
  time for H3.3 K18 acetylation to reach near basal levels after compound removal: ≤ 2 h
[3]; FIGS. 7A and 7B
  p21 expression level at higher concentration: reflected the ‘hook effect’
[3]; indicated doses, 8 hr and 24 hr exposure, FIGS. 7A and 7B
  p21 expression: strong dose-dependent expression
[3]; indicated doses, FIG. 7A
  expression of PUMA, MDM2, and GLS2: insignificant effects
[4]; 3 μM AceTAG-1, RNA-seq
  increases in apoptotic (Bax, Puma), metabolic (GLS2) or autoregulatory (Mdm2) targets: little to no increases
[4]; [7]
  upregulation of CDKNIA transcript: ~2.8 fold
  upregulation of GDF15 transcript: ~3 fold
  upregulation of SLC7A11 transcript: ~1.7 fold
  upregulation of TP5313 transcript: ~1.6 fold
[5]; FIG. 5B
  acetylation of c-Myc and STAT3: no observable acetylation changes
[5]; FIG. 5C
  broader acetylation perturbation (acetylated lysine immunoblot): no observable acetylation changes
[6]; FKBP12^F36V and BRD-p300, AlphaScreen
  concentration of maximum complex formation: ~1 µM
[6]; bell-shaped dose response fit
  AceTAG-mediated ternary complex formation (AlphaScreen curve): increased potence relative to other analogues
